Test results published in PubChem BioAssay (NCI).
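Step 1: Grow cells in 96-well plates. Step 2: Expose to compound for 48 hours at 5 concentrations. Step 3: Interpolate endpoints linearly; if unreached, use highest concentration. GI50 = concentration required for 50% inhibition of growth. Definition used: TGI = concentration required for complete inhibition of growth.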

Columns and labels:
Assay in all cases: inhibition of tumour cell growth, NCI panel, 48 h
SF-295 CNS = system: SF-295 CNS
SN12C renal = system: SN12C renal
SW-620 colon = system: SW-620 colon
OVCAR-5 ovarian = system: OVCAR-5 ovarian
UACC-62 melanoma = system: UACC-62 melanoma
SNB-19 CNS = system: SNB-19 CNS
MOLT-4 leukemia = system: MOLT-4 leukemia
IGROV1 ovarian = system: IGROV1 ovarian
MDA-MB-231 breast = system: MDA-MB-231 breast
NCI/ADR-RES ovarian = system: NCI/ADR-RES ovarian

SMILES | TGI (SF-295 CNS) [µM] | GI50 (SN12C renal) [µM] | TGI (SN12C renal) [µM] | TGI (SW-620 colon) [µM] | TGI (OVCAR-5 ovarian) [µM] | TGI (UACC-62 melanoma) [µM] | TGI (SNB-19 CNS) [µM] | TGI (MOLT-4 leukemia) [µM] | TGI (IGROV1 ovarian) [µM] | GI50 (SF-295 CNS) [µM] | GI50 (SW-620 colon) [µM] | GI50 (MDA-MB-231 breast) [µM] | TGI (MDA-MB-231 breast) [µM] | GI50 (OVCAR-5 ovarian) [µM] | GI50 (UACC-62 melanoma) [µM] | GI50 (SNB-19 CNS) [µM] | GI50 (NCI/ADR-RES ovarian) [µM] | TGI (NCI/ADR-RES ovarian) [µM] | GI50 (MOLT-4 leukemia) [µM] | GI50 (IGROV1 ovarian) [µM]
O=c1cccccc1[O-].O=c1cccccc1[O-].O=c1cccccc1[O-].[La+3] | 39.6 | 22.3 | > 100 | > 100 | > 100 | 52 | 84.1 | > 100 | 75.8 | – | – | – | – | – | – | – | – | – | – | –
N#Cc1cccc(/C=N/N=C(\N)NO)c1 | > 100 | – | > 100 | > 100 | > 100 | 52.8 | > 100 | – | > 100 | – | – | – | – | – | – | – | – | – | – | –
COc1cc(-c2nc(SCCC(C)C)nc(Nc3ccc(S(N)(=O)=O)cc3)c2C#N)cc(OC)c1OC | 7.35 | 1.81 | 3.51 | > 100 | > 100 | 22.9 | > 100 | > 100 | > 100 | 2.71 | 3.08 | 2.19 | 7.8 | 3.84 | 3 | 5.38 | 3.03 | > 100 | 2.39 | 3.39
COc1ccc(C2ON(c3cccc(C)n3)CC=C2C)cc1 (configuration not stated) | > 100 | – | > 100 | > 100 | > 100 | > 100 | > 100 | > 100 | > 100 | – | – | – | – | – | – | – | – | – | – | –
CC(=O)OCC1OC(n2c(-c3ccc(C)cc3)cc(-c3ccccc3)c(C#N)c2=O)C(OC(C)=O)C(OC(C)=O)C1OC(C)=O (configuration not stated) | – | – | > 100 | > 100 | > 100 | > 100 | > 100 | > 100 | > 100 | – | – | – | – | – | – | – | – | – | – | –
CCOC(=O)c1[nH]c(COC(C)=O)c2c1CCCCCCCCCC2 | > 100 | – | > 100 | > 100 | > 100 | > 100 | > 100 | > 100 | > 100 | – | – | – | – | – | – | – | – | – | – | –
CCOc1ccc2nc(NC(=O)C(=O)C(c3cnc4ccccc4n3)[N+](=O)[O-])sc2c1 (configuration not stated) | > 100 | – | > 100 | – | > 100 | > 100 | > 100 | > 100 | > 100 | – | – | – | > 100 | – | – | – | – | > 100 | – | –
CN(C)CCNC(=O)c1ccc(NC(=O)c2nc([N+](=O)[O-])cn2C)cc1 | > 100 | – | > 100 | > 100 | > 100 | > 100 | – | > 100 | > 100 | – | – | – | > 100 | – | – | – | – | > 100 | – | –
CN(C)c1ccc(/C=c2\sc3nc4ccccc4n3c2=O)cc1 | > 100 | – | > 100 | > 100 | > 100 | > 100 | > 100 | – | > 100 | – | – | – | – | – | – | – | – | – | – | –
Cc1ccc(Cl)cc1NC(=O)c1sc2nc3c(cc2c1N)C(=O)CCC3 | 7.44 | – | – | > 100 | > 100 | > 100 | > 100 | > 100 | > 100 | 2.33 | 3.68 | – | – | > 100 | 4.45 | 5.64 | 5.28 | > 100 | > 100 | > 100
CCCSS[C@H]1NC(=O)[C@H]1NC(=O)COc1ccccc1 | > 100 | – | 29.8 | 18.2 | > 100 | 32.1 | > 100 | 13.2 | 43.2 | – | – | – | – | – | – | – | – | – | – | –
COC(=O)Nc1nc2ccc(Br)cc2[nH]1 | > 100 | – | > 100 | > 100 | > 100 | > 100 | – | > 100 | > 100 | – | – | – | – | – | – | – | – | – | – | –
CCOC(=O)c1c2c(n3ccccc13)C(=O)c1ncccc1C2=O | 11.3 | 0.0348 | 5.85 | – | 27.5 | 1.39 | 13.7 | 76.8 | 42.7 | 1.31 | – | 2.76 | > 100 | 1.8 | 0.0337 | 0.0587 | 0.0348 | 3.09 | 2.43 | 0.0987
Clc1ccc(C(n2cc(Br)cn2)n2cc(Br)cn2)cc1 | 29.8 | – | 32.3 | 34.6 | 29.9 | 28.7 | – | 47.9 | 41.3 | – | – | – | – | – | – | – | – | – | – | –
Cn1cc2ccccc2c1-c1nc(F)nc(OCC(=O)[C@H]2CCC3[C@@H]4CCC5=CC(=O)CC[C@]5(C)C4[C@@H](O)C[C@@]32C)n1 (some centres not stated) | 44.4 | – | 30.8 | 33.4 | > 73.7 | 36.7 | 36 | 54.3 | 22.9 | – | – | – | – | – | – | – | – | – | – | –
CN1C(=O)C2C(C1=O)C1(O)c3ccccc3C2(N)c2ccccc21 (configuration not stated) | > 100 | – | > 100 | > 100 | > 100 | > 100 | > 100 | > 100 | > 100 | – | – | – | – | – | – | – | – | – | – | –
N#CC1CC2(CCN1C(=O)c1ccccc1)OCCO2 (configuration not stated) | > 100 | – | > 100 | > 100 | > 100 | > 100 | > 100 | > 100 | > 100 | – | – | – | – | – | – | – | – | – | – | –
NC(N)=NS(=O)(=O)c1ccc(NCCc2c3ccccc3nc3ccccc23)cc1 | > 100 | – | > 100 | > 100 | > 100 | – | > 100 | > 100 | > 100 | – | – | – | – | – | – | – | – | – | – | –
O=C1C(=Cc2c(O)cc(O)cc2O)C(=O)c2ccccc21 | > 57 | – | 37.6 | > 56.5 | > 57.7 | > 54.9 | > 56.9 | > 81.6 | > 59.8 | – | – | – | – | – | – | – | – | – | – | –
CC(=O)C1=C(O)CC2CC3c4[nH]c5ccccc5c4CCN3CC2C1 (configuration not stated) | > 100 | – | > 100 | > 100 | > 100 | – | > 100 | 70.6 | > 100 | – | – | – | – | – | – | – | – | – | – | –
Cc1cc(Cl)ccc1NC(=O)CC1SC(=Nc2ccccc2Cl)NC1=O (configuration not stated) | > 100 | – | > 100 | > 100 | > 100 | > 100 | > 100 | > 100 | > 100 | – | – | – | – | – | – | – | – | – | – | –
NC(N)=NS(=O)(=O)c1ccc(Nc2c3ccccc3nc3c(C(=O)Nc4ccc(S(N)(=O)=O)cc4)cccc23)cc1 | > 100 | – | > 100 | > 100 | > 100 | > 100 | > 100 | > 100 | > 100 | – | – | – | – | – | – | – | – | – | – | –
